System: MV-4-11 cells
Assay: Gene expression microarray analysis (Affymetrix PrimeView) and GSEA
Type: cell-based, human
Set-up: RFU PODN (11730768_x_at) / Fold change /veh PODN (11730768_x_at) / RFU LINC00158 (11744669_a_at) / Fold change /veh LINC00158 (11744669_a_at) / RFU DUSP10 (11751237_a_at) / Fold change /veh DUSP10 (11751237_a_at) / RFU ID3 (11757404_x_at) / Fold change /veh ID3 (11757404_x_at) / RFU PLEKHG5 (11737974_s_at) / Fold change /veh PLEKHG5 (11737974_s_at) / RFU LRRC4B (11730491_at) / Fold change /veh LRRC4B (11730491_at) / RFU GIMAP4 (11747438_a_at) / Fold change /veh GIMAP4 (11747438_a_at) / RFU KRT8 (11758183_x_at) / Fold change /veh KRT8 (11758183_x_at) / RFU CNN1 (11734310_a_at) / Fold change /veh CNN1 (11734310_a_at) / RFU VPS37D (11726825_at) / Fold change /veh VPS37D (11726825_at) / RFU C10orf10 (11716522_x_at) / Fold change /veh C10orf10 (11716522_x_at) / RFU KIR2DL2 /// KIR2DL4 /// KIR2DL5A /// KIR2DL5B /// KIR2DS1 /// KIR2DS2 /// KIR2DS3 /// KIR2DS4 /// KIR3DL3 /// KIR3DL3 /// KIR3DS1 (11738374_at) / Fold change /veh KIR2DL2 /// KIR2DL4 /// KIR2DL5A /// KIR2DL5B /// KIR2DS1 /// KIR2DS2 /// KIR2DS3 /// KIR2DS4 /// KIR3DL3 /// KIR3DL3 /// KIR3DS1 (11738374_at) / RFU C1QL1 (11718748_at) / Fold change /veh C1QL1 (11718748_at) / RFU TMPRSS4 (11747572_a_at) / Fold change /veh TMPRSS4 (11747572_a_at) / RFU HAMP (11756126_x_at) / Fold change /veh HAMP (11756126_x_at) / RFU RNFT2 (11725882_a_at) / Fold change /veh RNFT2 (11725882_a_at) / RFU NR4A2 (11747474_a_at) / Fold change /veh NR4A2 (11747474_a_at) / RFU ABCC12 (11746883_a_at) / Fold change /veh ABCC12 (11746883_a_at) / RFU TMEM136 (11760407_x_at) / Fold change /veh TMEM136 (11760407_x_at) / RFU CLDN22 /// WWC2 (11732394_at) / Fold change /veh CLDN22 /// WWC2 (11732394_at) / RFU HLA-DPB1 (11760878_x_at) / Fold change /veh HLA-DPB1 (11760878_x_at) / RFU SPINT1 (11716480_a_at) / Fold change /veh SPINT1 (11716480_a_at) / RFU GAP43 (11754022_s_at) / Fold change /veh GAP43 (11754022_s_at) / RFU A4GNT (11735810_at) / Fold change /veh A4GNT (11735810_at) / RFU PRB3 (11715151_x_at) / Fold change /veh PRB3 (11715151_x_at) / RFU TUBB4B (11761932_at) / Fold change /veh TUBB4B (11761932_at) / RFU CAPN14 (11732068_a_at) / Fold change /veh CAPN14 (11732068_a_at) / RFU TMCC2 (11721928_a_at) / Fold change /veh TMCC2 (11721928_a_at) / RFU IRGQ (11745062_a_at) / Fold change /veh IRGQ (11745062_a_at) / RFU FAM174B (11720279_a_at) / Fold change /veh FAM174B (11720279_a_at) / RFU TMPRSS4 (11748680_a_at) / Fold change /veh TMPRSS4 (11748680_a_at) / RFU FAM212B (11763350_a_at) / Fold change /veh FAM212B (11763350_a_at) / RFU PLEKHG5 (11743358_a_at) / Fold change /veh PLEKHG5 (11743358_a_at) / RFU ZSCAN30 (11745921_a_at) / Fold change /veh ZSCAN30 (11745921_a_at) / RFU CMKLR1 (11741424_a_at) / Fold change /veh CMKLR1 (11741424_a_at) / RFU LOC101060620 /// MAPK8IP1 (11723275_at) / Fold change /veh LOC101060620 /// MAPK8IP1 (11723275_at) / RFU SPTSSB (11747773_x_at) / Fold change /veh SPTSSB (11747773_x_at) / RFU PRSS12 (11739890_at) / Fold change /veh PRSS12 (11739890_at) / RFU BIN1 (11741810_x_at) / Fold change /veh BIN1 (11741810_x_at) / RFU WNT11 (11732464_a_at) / Fold change /veh WNT11 (11732464_a_at) / RFU C10orf10 (11716521_a_at) / Fold change /veh C10orf10 (11716521_a_at) / RFU C5orf56 (11738089_at) / Fold change /veh C5orf56 (11738089_at) / RFU CYB561 (11721691_x_at) / Fold change /veh CYB561 (11721691_x_at) / RFU ANKRD19P (11752326_a_at) / Fold change /veh ANKRD19P (11752326_a_at) / RFU OR2T12 /// OR2T33 /// OR2T8 (11738714_s_at) / Fold change /veh OR2T12 /// OR2T33 /// OR2T8 (11738714_s_at) / RFU VCAN (11748164_a_at) / Fold change /veh VCAN (11748164_a_at) / RFU JSRP1 (11732532_at) / Fold change /veh JSRP1 (11732532_at) / RFU KRTAP10-11 (11738290_x_at) / Fold change /veh KRTAP10-11 (11738290_x_at) / RFU MYO3A (11730013_a_at) / Fold change /veh MYO3A (11730013_a_at) / RFU EBF3 (11725865_a_at) / Fold change /veh EBF3 (11725865_a_at) / RFU CAMK2N1 (11719241_x_at) / Fold change /veh CAMK2N1 (11719241_x_at) / RFU C5orf56 (11738088_a_at) / Fold change /veh C5orf56 (11738088_a_at) / RFU OLFML3 (11715873_a_at) / Fold change /veh OLFML3 (11715873_a_at) / RFU LOC100653217 /// NTM (11731650_a_at) / Fold change /veh LOC100653217 /// NTM (11731650_a_at) / RFU MAPK11 (11762145_a_at) / Fold change /veh MAPK11 (11762145_a_at) / RFU FIZ1 (11724087_x_at) / Fold change /veh FIZ1 (11724087_x_at) / RFU OASL (11726364_x_at) / Fold change /veh OASL (11726364_x_at) / RFU SOX15 (11748057_x_at) / Fold change /veh SOX15 (11748057_x_at) / RFU CD79A (11719716_a_at) / Fold change /veh CD79A (11719716_a_at) / RFU HIST1H1D (11736915_at) / Fold change /veh HIST1H1D (11736915_at) / RFU CASKIN2 (11723855_a_at) / Fold change /veh CASKIN2 (11723855_a_at) / RFU LOC730098 (11760151_x_at) / Fold change /veh LOC730098 (11760151_x_at) / RFU OR4N2 (11742367_at) / Fold change /veh OR4N2 (11742367_at) / RFU PRRT2 (11749266_a_at) / Fold change /veh PRRT2 (11749266_a_at) / RFU SNX32 (11753110_a_at) / Fold change /veh SNX32 (11753110_a_at) / RFU CDHR5 (11726645_a_at) / Fold change /veh CDHR5 (11726645_a_at) / RFU RCAN1 (11760418_a_at) / Fold change /veh RCAN1 (11760418_a_at) / RFU FAM167A (11723789_a_at) / Fold change /veh FAM167A (11723789_a_at) / RFU FAM26E (11764081_at) / Fold change /veh FAM26E (11764081_at) / RFU ISYNA1 (11749810_s_at) / Fold change /veh ISYNA1 (11749810_s_at) / RFU ACY1 (11761880_at) / Fold change /veh ACY1 (11761880_at) / RFU 11764098_at / Fold change /veh 11764098_at / RFU SAMD14 (11745864_x_at) / Fold change /veh SAMD14 (11745864_x_at) / RFU NPB (11741838_a_at) / Fold change /veh NPB (11741838_a_at) / RFU TMPRSS6 (11731388_a_at) / Fold change /veh TMPRSS6 (11731388_a_at) / RFU KRTAP10-2 (11738614_at) / Fold change /veh KRTAP10-2 (11738614_at) / RFU ARHGAP8 /// PRR5-ARHGAP8 (11727945_x_at) / Fold change /veh ARHGAP8 /// PRR5-ARHGAP8 (11727945_x_at) / RFU KRTAP5-7 /// NADSYN1 (11734609_at) / Fold change /veh KRTAP5-7 /// NADSYN1 (11734609_at) / RFU RASL12 (11751679_a_at) / Fold change /veh RASL12 (11751679_a_at) / RFU CDKN2B (11736163_a_at) / Fold change /veh CDKN2B (11736163_a_at) / RFU PRF1 (11729649_at) / Fold change /veh PRF1 (11729649_at) / RFU, ZNF638 /// ZNF638-IT1 / Fold change vs veh, ZNF638 /// ZNF638-IT1 / RFU, PANK3 / Fold change vs veh, PANK3 / RFU, SH3YL1 / Fold change vs veh, SH3YL1 / RFU, ZEB2 / Fold change vs veh, ZEB2 / RFU, NRIP1 / Fold change vs veh, NRIP1 / RFU, PTTG1IP / Fold change vs veh, PTTG1IP / RFU, CAPN2 / Fold change vs veh, CAPN2 / RFU, MED14 / Fold change vs veh, MED14 / RFU, SNORA58 / Fold change vs veh, SNORA58 / RFU, C1orf63 / Fold change vs veh, C1orf63 / RFU, LRRFIP1 / Fold change vs veh, LRRFIP1 / RFU, NDUFAF7 / Fold change vs veh, NDUFAF7 / RFU, SLC12A2 / Fold change vs veh, SLC12A2 / RFU, IBTK / Fold change vs veh, IBTK / RFU, ESF1 / Fold change vs veh, ESF1 / Fold change vs veh, TMEM50B / RFU, TAOK1 / Fold change vs veh, TAOK1 / RFU, ACBD3 / Fold change vs veh, ACBD3 / RFU, TMA16 / Fold change vs veh, TMA16 / RFU, RWDD3 / Fold change vs veh, RWDD3 / RFU, BCAT1 / Fold change vs veh, BCAT1 / RFU, EDEM3 / Fold change vs veh, EDEM3 / RFU, TMEM33 / Fold change vs veh, TMEM33 / RFU, WDR75 / Fold change vs veh, WDR75 / RFU, AHCTF1 / Fold change vs veh, AHCTF1 / RFU, TFRC / Fold change vs veh, TFRC / RFU, ZDHHC17 / Fold change vs veh, ZDHHC17 / RFU, NOM1 / Fold change vs veh, NOM1 / RFU, ARL8B / Fold change vs veh, ARL8B / RFU, ZBTB11 / Fold change vs veh, ZBTB11 / RFU, TAMM41 / Fold change vs veh, TAMM41 / RFU, KIAA1704 /// LOC100996395 / Fold change vs veh, KIAA1704 /// LOC100996395 / RFU, ING1 / Fold change vs veh, ING1 / RFU, TRMT61B / Fold change vs veh, TRMT61B / RFU, FUBP3 / Fold change vs veh, FUBP3 / RFU, TP53 / Fold change vs veh, TP53 / RFU, TNKS2 / Fold change vs veh, TNKS2 / RFU, ZFP14 / Fold change vs veh, ZFP14 / RFU, ACTR2 / Fold change vs veh, ACTR2 / RFU, PPP3R1 / Fold change vs veh, PPP3R1 / RFU, PIK3R1 / Fold change vs veh, PIK3R1 / RFU, HNRNPA1 / Fold change vs veh, HNRNPA1 / RFU, RNF170 / Fold change vs veh, RNF170 / RFU, ZNF28 / Fold change vs veh, ZNF28 / RFU, RNGTT / Fold change vs veh, RNGTT / RFU, OGT / Fold change vs veh, OGT / RFU, BRD1 / Fold change vs veh, BRD1 / RFU, MARS / Fold change vs veh, MARS / RFU, ZNF655 / Fold change vs veh, ZNF655 / RFU, FAHD1 / Fold change vs veh, FAHD1 / RFU, BDP1 / Fold change vs veh, BDP1 / RFU, LRRCC1 / Fold change vs veh, LRRCC1 / RFU, ARID1A / Fold change vs veh, ARID1A / RFU, ZNF146 / Fold change vs veh, ZNF146 / RFU, ZNF330 / Fold change vs veh, ZNF330 / RFU, GPN3 / Fold change vs veh, GPN3 / RFU, C9orf123 / Fold change vs veh, C9orf123 / RFU, N4BP2L2 / Fold change vs veh, N4BP2L2 / RFU, ARFIP1 / Fold change vs veh, ARFIP1 / RFU, FAM179B / Fold change vs veh, FAM179B / RFU, BCL10 / Fold change vs veh, BCL10 / RFU, UHRF1BP1L / Fold change vs veh, UHRF1BP1L / RFU, BET1 / Fold change vs veh, BET1 / RFU, CNOT2 / Fold change vs veh, CNOT2 / RFU, ZNF268 / Fold change vs veh, ZNF268 / Fold change vs veh, ZNF507 / RFU, DGCR2 / Fold change vs veh, DGCR2 / RFU, WDSUB1 / Fold change vs veh, WDSUB1 / Fold change vs veh, HSP90B1 /// MIR3652 / RFU, ADSS / Fold change vs veh, ADSS / RFU, GK / Fold change vs veh, GK / RFU, ZNF148 / Fold change vs veh, ZNF148 / RFU, TAF9 / Fold change vs veh, TAF9 / RFU, SLC1A5 / Fold change vs veh, SLC1A5 / RFU, SLMO2 / Fold change vs veh, SLMO2 / RFU, ABCC4 / Fold change vs veh, ABCC4 / RFU, LOC101060439 /// RAP1B / Fold change vs veh, LOC101060439 /// RAP1B / RFU, RFX7 / Fold change vs veh, RFX7 / RFU, GTPBP10 / Fold change vs veh, GTPBP10 / RFU, CNEP1R1 / Fold change vs veh, CNEP1R1 / RFU, BIVM-ERCC5 /// ERCC5 / Fold change vs veh, BIVM-ERCC5 /// ERCC5 / RFU, ILF3 / Fold change vs veh, ILF3 / RFU 11762660_at / Fold change /veh 11762660_at / RFU VCAN (11757783_s_at) / Fold change /veh VCAN (11757783_s_at) / RFU DDX43 (11728927_at) / Fold change /veh DDX43 (11728927_at) / RFU KRT8 (11758188_x_at) / Fold change /veh KRT8 (11758188_x_at) / RFU NKD1 (11759106_at) / Fold change /veh NKD1 (11759106_at) / RFU SRD5A1 (11742802_a_at) / Fold change /veh SRD5A1 (11742802_a_at) / RFU TPSAB1 /// TPSB2 (11721975_s_at) / Fold change /veh TPSAB1 /// TPSB2 (11721975_s_at) / RFU GSTM3 (11746129_a_at) / Fold change /veh GSTM3 (11746129_a_at) / RFU IL23R (11737362_x_at) / Fold change /veh IL23R (11737362_x_at) / RFU TMEM51 (11727254_a_at) / Fold change /veh TMEM51 (11727254_a_at) / RFU PIWIL2 (11732686_x_at) / Fold change /veh PIWIL2 (11732686_x_at) / RFU ORM1 (11744905_x_at) / Fold change /veh ORM1 (11744905_x_at) / RFU CCDC152 (11743942_at) / Fold change /veh CCDC152 (11743942_at) / RFU ECM1 (11717891_a_at) / Fold change /veh ECM1 (11717891_a_at) / RFU IL23R (11748794_a_at) / Fold change /veh IL23R (11748794_a_at) / RFU TNFAIP8L3 (11732012_x_at) / Fold change /veh TNFAIP8L3 (11732012_x_at) / RFU MBOAT4 (11741988_at) / Fold change /veh MBOAT4 (11741988_at) / RFU 11764193_at / Fold change /veh 11764193_at / RFU TMEM53 (11763286_at) / Fold change /veh TMEM53 (11763286_at) / RFU MAGEB2 (11727129_at) / Fold change /veh MAGEB2 (11727129_at) / RFU TMEM200A (11744735_a_at) / Fold change /veh TMEM200A (11744735_a_at) / RFU CCDC152 (11751479_a_at) / Fold change /veh CCDC152 (11751479_a_at) / RFU FAM211A (11726209_a_at) / Fold change /veh FAM211A (11726209_a_at) / RFU RGS16 (11746705_a_at) / Fold change /veh RGS16 (11746705_a_at) / RFU VCAN (11755009_s_at) / Fold change /veh VCAN (11755009_s_at) / RFU RHOB (11743442_s_at) / Fold change /veh RHOB (11743442_s_at) / RFU RGS16 (11720943_a_at) / Fold change /veh RGS16 (11720943_a_at) / RFU RGS16 (11720944_at) / Fold change /veh RGS16 (11720944_at) / RFU, VPS4B / Fold change vs veh, VPS4B / RFU, CREB1 / Fold change vs veh, CREB1 / RFU, DNAJC13 / Fold change vs veh, DNAJC13 / RFU, GNAQ / Fold change vs veh, GNAQ / RFU, CDK5R1 / Fold change vs veh, CDK5R1 / RFU, ZRANB3 / Fold change vs veh, ZRANB3 / RFU, CUL4A / Fold change vs veh, CUL4A / RFU, CCNY / Fold change vs veh, CCNY / RFU, UFL1 / Fold change vs veh, UFL1 / RFU, COG3 / Fold change vs veh, COG3 / RFU, DIAPH2 / Fold change vs veh, DIAPH2 / RFU, SKA2 / Fold change vs veh, SKA2 / RFU, AFF3 / Fold change vs veh, AFF3 / RFU, LMF1 / Fold change vs veh, LMF1 / RFU, IPO11 / Fold change vs veh, IPO11 / RFU, DFFB / Fold change vs veh, DFFB / RFU, FOXP1 / Fold change vs veh, FOXP1 / RFU, CARD8 / Fold change vs veh, CARD8 / RFU, STRN3 / Fold change vs veh, STRN3 / RFU, ADK / Fold change vs veh, ADK / RFU, RASSF2 / Fold change vs veh, RASSF2 / RFU, WIPF1 / Fold change vs veh, WIPF1 / RFU, LARP1B / Fold change vs veh, LARP1B / RFU, RASA1 / Fold change vs veh, RASA1 / RFU, RB1 / Fold change vs veh, RB1 / RFU, PPFIA1 / Fold change vs veh, PPFIA1 / RFU, MAT2A / Fold change vs veh, MAT2A / RFU, CCT5 / Fold change vs veh, CCT5 / RFU, WDR92 / Fold change vs veh, WDR92 / RFU, CUX1 / Fold change vs veh, CUX1 / RFU, TTC7A / Fold change vs veh, TTC7A / RFU, TMEM135 / Fold change vs veh, TMEM135 / RFU, DEPTOR / Fold change vs veh, DEPTOR / RFU, CPM / Fold change vs veh, CPM / RFU, DNAJB6 / Fold change vs veh, DNAJB6 / RFU, CACNA2D3 / Fold change vs veh, CACNA2D3 / RFU, DTX4 / Fold change vs veh, DTX4 / RFU, TFCP2 / Fold change vs veh, TFCP2 / RFU, GMCL1 /// GMCL1P1 / Fold change vs veh, GMCL1 /// GMCL1P1 / RFU, AEBP2 / Fold change vs veh, AEBP2 / RFU, SNHG1 /// SNORD22 /// SNORD25 /// SNORD26 /// SNORD27 /// SNORD28 /// SNORD29 /// SNORD31 / Fold change vs veh, SNHG1 /// SNORD22 /// SNORD25 /// SNORD26 /// SNORD27 /// SNORD28 /// SNORD29 /// SNORD31 / Fold change (Aza/veh), C12orf56 (ProbeSet 11735607_a_at) / Fold change (ACY-1035/veh), C12orf56 (ProbeSet 11735607_a_at) / Fold change (Aza/veh), FGFR1OP (ProbeSet 11751329_s_at) / Fold change (ACY-1035/veh), FGFR1OP (ProbeSet 11751329_s_at) / Fold change (Aza/veh), VPS36 (ProbeSet 11739960_a_at) / Fold change (ACY-1035/veh), VPS36 (ProbeSet 11739960_a_at) / RFU SYPL1 (11715823_x_at) / Fold change /veh SYPL1 (11715823_x_at) / RFU IGFBP7 (11715501_s_at) / Fold change /veh IGFBP7 (11715501_s_at) / RFU REEP3 (11722064_at) / Fold change /veh REEP3 (11722064_at) / RFU IGLL1 (11728026_x_at) / Fold change /veh IGLL1 (11728026_x_at): dose or concentration left out as unconfirmed
Conditions: MV-4-11 cells, 48 hours

`Nc1ncn([C@@H]2O[C@H](CO)[C@@H](O)[C@H]2O)c(=O)n1` [azacitidine] was tested. Which “RFU SRD5A1 (11742802_a_at)” value did it give?
The value was 51.32 RFU.

Source: paper PMC5218480 (PLoS ONE, 2017)
